Measured values: patent US20240182503A1, “MACROCYCLE COMPLEMENT FACTOR B INHIBITORS” (priority 2021, published 2024)

Target: CVF-Bb complex (Homo sapiens (Human), UniProt P00751)
Test: biochemical
Assay type: biochemical
Settings: not given
Protocol: CVF-Bb complex, prepared from purified cobra venom factor, (3 nM) is incubated with a compound of the disclosure at various concentrations for 10 minutes at room temperature in PBS (pH 7.4) containing 10 mM MgCl2 and 0.05% (w/v) CHAPS. Human Complement C3 substrate is added to a final concentration of 1 μM. After 1 hour incubation at room temperature, the enzyme reaction is stopped by addition of a cocktail of concentrated pan-protease inhibitors. The product of the reaction, C3a, is quantified by means of an enzyme-linked-immunosorbent assay and/or denaturing gel electrophoresis (SDS-PAGE). IC50 values are calculated from percentage of inhibition of CVF-Bb activity as a function of test compound concentration.

Structure (SMILES)	IC50 [nM]
CCO[C@H]1CCN(Cc2c(OC)cc(C)c3[nH]ccc23)[C@H](c2ccc(C(=O)NS(=O)(=O)CCNC(C)=O)cc2)C1 [Compar. Ex. 2, N-((2-acetamidoethyl)sulfonyl)-4-((2S,4S)-4-ethoxy-1-((5-methoxy-7-methyl-1H-indol-4-yl)methyl)piperidin-2-yl)benzamide, reference compound]	395
COc1cc(C)c2[nH]ccc2c1CN1CC[C@H]2C[C@H]1c1ccc(C(=O)NS(=O)(=O)C(C)C)cc1OCCCCCCO2 [Ex. 47, (1^2S,1^4S)-N-(isopropylsulfonyl)-11-((5-methoxy-7-methyl-1H-indol-4-yl)methyl)-3,10-dioxa-1(2,4)-piperidina-2(1,2)-benzenacyclodecaphane-2^4-carboxamide]	649
COc1cc(C)c2[nH]ccc2c1CN1CC[C@H](OCCNC(C)=O)C[C@H]1c1ccc(C(=O)O)cc1 [Compar. Ex. 1, 4-((2S,4S)-4-(2-acetamidoethoxy)-1-((5-methoxy-7-methyl-1H-indol-4-yl)methyl)piperidin-2-yl)benzoic acid, reference compound]	135
COc1cc(C)c2[nH]ccc2c1CN1CC[C@H]2C[C@H]1c1ccc(C(=O)NS(C)(=O)=O)cc1OCCCCCCO2 [Ex. 33, (1^2S,1^4S)-1^1-((5-methoxy-7-methyl-1H-indol-4-yl)methyl)-N-(methylsulfonyl)-3,10-dioxa-1(2,4)-piperidina-2(1,2)-benzenacyclodecaphane-2^4-carboxamide]	96
CCO[C@H]1CCN2Cc3c(cc(C)c4[nH]ccc34)OCCCCCCCCCOc3cc(C(=O)O)ccc3[C@@H]2C1 [Ex. 31, (20bS,22S)-22-ethoxy-4-methyl-3,7,8,9,10,11,12,13,14,15,20b,21,22,23,24,26-hexadecahydrobenzo[7,8]pyrido[1′,2′:5,6][1,9, 5]dioxaazacyclooctadecino[3,2-e]indole-18-carboxylic acid]	2870
CCO[C@@H]1CCN(Cc2c(OC)cc(C)c3[nH]ccc23)[C@H](c2ccc(C(=O)O)cc2OC)C1 [Ex. 4, 4-((2S,4R)-4-ethoxy-1-((5-methoxy-7-methyl-1H-indol-4-yl)methyl)piperidin-2-yl)-3-methoxybenzoic acid]	3550
CCO[C@H]1CCN(Cc2c(OC)cc(C)c3[nH]ccc23)[C@H](c2ccc(C(=O)O)cc2OC)C1 [Ex. 3, 4-((2S,4S)-4-ethoxy-1-((5-methoxy-7-methyl-1H-indol-4-yl)methyl)piperidin-2-yl)-3-methoxybenzoic acid]	263

Same assay, conditions: read-out: IC50

Structure (SMILES)	IC50 [nM]
COc1cc(C)c2[nH]ccc2c1CN1CCC2CC1c1ccc(C(=O)O)cc1OCCCCCCO2 (centres unmarked) [Ex. 5, (1^2S,1^4S)-11-((5-methoxy-7-methyl-1H-indol-4-yl)methyl)-3,10-dioxa-1(2,4)-piperidina-2(1,2)-benzenacyclodecaphane-2^4-carboxylic acid]	262
COc1cc(C)c2[nH]ccc2c1CN1CC[C@H]2C[C@H]1c1ccc(C(=O)NS(=O)(=O)C3CCCC3)cc1OCCCCCCO2 [Ex. 62, (1^2S,1^4S)—N-(cyclopentylsulfonyl)-1^1-((5-methoxy-7-methyl-1H-indol-4-yl)methyl)-3,10-dioxa-1(2,4)-piperidina-2(1,2)-benzenacyclodecaphane-2^4-carboxamide]	293
COc1cc(C)c2[nH]ccc2c1CN1CC[C@H]2C[C@H]1c1ccc(C(=O)O)c3ccc(cc13)OC/C=C\CO2 [Ex. 75, (1^2S,1^4S,Z)-1′-((5-methoxy-7-methyl-1H-indol-4-yl)methyl)-3,8-dioxa-1(2,4)-piperidina-2(1,7)-naphthalenacyclooctaphan-5-ene-2^4-carboxylic acid]	352
COc1cc(C)c2[nH]ccc2c1CN1CC[C@H]2C[C@H]1c1ccc(C(=O)O)cc1OCC/C=C\CO2 [Ex. 9, (1^2S,1^4S,Z)-1^1-((5-methoxy-7-methyl-1H-indol-4-yl)methyl)-3,9-dioxa-1(2,4)-piperidina-2(1,2)-benzenacyclononaphan-6-ene-2^4-carboxylic acid]	342
COc1cc(C)c2[nH]ccc2c1CN1CC[C@H]2C[C@H]1c1ccc(C(=O)NS(=O)(=O)c3ccccc3)cc1OCCCCCO2 [Ex. 70, (1^2S,1^4S)-1^1-((5-methoxy-7-methyl-1H-indol-4-yl)methyl)-N-(phenylsulfonyl)-3,9-dioxa-1(2,4)-piperidina-2(1,2)-benzenacyclononaphane-2^4-carboxamide]	543
COc1cc(C)c2[nH]ccc2c1CN1CC[C@H]2C[C@H]1c1ccc(C(=O)O)cc1/C=C/CCCCCCCO2 [Ex. 73, (1^2S,1^4S,Z)-1^1-((5-methoxy-7-methyl-1H-indol-4-yl)methyl)-12-oxa-1(2,4)-piperidina-2(1,2)-benzenacyclododecaphan-3-ene-2^4-carboxylic acid]	271
COc1cc(C)c2[nH]ccc2c1CN1CC[C@H]2C[C@H]1c1ccc(C(=O)O)c3ccc(cc13)OCC/C=C/CO2 [Ex. 76, (1^2S,1^4S)-1^1-((5-methoxy-7-methyl-1H-indol-4-yl)methyl)-3,9-dioxa-1(2,4)-piperidina-2(1,7)-naphthalenacyclononaphane-2^4-carboxylic acid]	251
COc1cc(C)c2[nH]ccc2c1CN1CC[C@H]2C[C@H]1c1ccc(C(=O)NS(C)(=O)=O)cc1CCCCCCCCO2 [Ex. 65, (1^2S,1^4S)-1^1-((5-methoxy-7-methyl-1H-indol-4-yl)methyl)-N-(methylsulfonyl)-11-oxa-1(2,4)-piperidina-2(1,2)-benzenacycloundecaphane-2^4-carboxamide]	139
CNS(=O)(=O)c1ccc2c(c1)OCCCCCCO[C@H]1CCN(Cc3c(OC)cc(C)c4[nH]ccc34)[C@H]2C1 [Ex. 79, (1^2S,1^4S)-1^1-((5-methoxy-7-methyl-1H-indol-4-yl)methyl)-N-methyl-3,10-dioxa-1(2,4)-piperidina-2(1,2)-benzenacyclodecaphane-2^4-sulfonamide]	> 10000
COc1cc(C)c2[nH]ccc2c1CN1CC[C@H]2C[C@H]1c1ccc(C(=O)O)cc1OCCC/C=C\CO2 [Ex. 11, (1^2S,1^4S,Z)-1′-((5-methoxy-7-methyl-1H-indol-4-yl)methyl)-3,10-dioxa-1(2,4)-piperidina-2(1,2)-benzenacyclodecaphan-7-ene-2^4-carboxylic acid]	1200
COc1cc(C)c2[nH]ccc2c1CN1CC[C@H]2C[C@H]1c1ccc(-c3nnn[nH]3)cc1OCCCCCCO2 [Ex. 74, (1^2S,1^4S)-1^1-((5-methoxy-7-methyl-1H-indol-4-yl)methyl)-2^4-(1H-tetrazol-5-yl)-3,10-dioxa-1(2,4)-piperidina-2(1,2)-benzenacyclodecaphane]	1250
COc1cc(C)c2[nH]ccc2c1CN1CC[C@H]2C[C@H]1c1ccc(C(=O)NS(=O)(=O)C3CC3)cc1OCCCCCCO2 [Ex. 50, (12S,14S)—N-(cyclopropylsulfonyl)-11-((5-methoxy-7-methyl-1H-indol-4-yl)methyl)-3,10-dioxa-1(2,4)-piperidina-2(1,2)-benzenacyclodecaphane-24-carboxamide]	> 10000
COc1cc(C)c2[nH]ccc2c1CN1CC[C@H]2C[C@H]1c1ccc(C(=O)NS(=O)(=O)C(C)C)cc1OCCCCCO2 [Ex. 66, (1^2S,1^4S)—N-(isopropylsulfonyl)-1^1-((5-methoxy-7-methyl-1H-indol-4-yl)methyl)-3,9-dioxa-1(2,4)-piperidina-2(1,2)-benzenacyclononaphane-2^4-carboxamide]	411
